Assay results: US8445501B2, “Substituted 7-carboxamido-pyrrolo[3,2-d]pyrimidines” (Takeda GmbH, priority 2008, dated 2013)

target: T1, human PDE5 (Homo sapiens, UniProt O76074); assay: Inhibition of the type 5 phosphodiesterase (PDE5) activity, modified SPA test with platelet lysate; assay type: biochemical; details: PDE5 from human platelet lysate, 0.5 μM cGMP
T1 construct: from tissue; host or cells: platelets from fresh blood of human donors (lysate, 10,000 g supernatant)
Outline: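 SPA-based cGMP hydrolysis, [3H]cGMP tracer in 0.5 μM cGMP, by sonicated human platelet lysate; motapizone (1 μM) and a PDE2 inhibitor (10 nM) block other PDEs. Reaction 15 min at 37 °C after 5 min preincubation, quenched with beads containing IBMX. IC50 from concentration-effect curves.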

SMILES | IC50 [nM]
COc1cc(OCC2CC2)c(-c2ncnc3c(C(=O)NC4CCN(C(=O)C5(O)CC5)CC4)c[nH]c23)cc1F [Example 238, 4-(2-Cyclopropylmethoxy-5-fluoro-4-methoxy-phenyl)-5H-pyrrolo[3,2-d]pyrimidine-7-carboxylic acid {1-[1-(1-hydroxy-cyclopropyl)methanoyl]-piperidin-4-yl}-amide] | 0.316
COc1cc(OCC2CC2)c(-c2ncnc3c(C(=O)N[C@H]4CCCN(C(=O)[C@H](C)O)C4)c[nH]c23)cc1F [Example 239, 4-(2-cyclopropylmethoxy-5-fluoro-4-methoxy-phenyl)-5H-pyrrolo[3,2-d]pyrimidine-7-carboxylic acid [(S)-1-((S)-2-hydroxy-propanoyl)piperidin-3-yl]-amide] | 2.51
COc1cc(OCC2CC2)c(-c2ncnc3c(C(=O)N[C@@H]4CCCN(C(=O)[C@H](C)O)C4)c[nH]c23)cc1F [Example 240, 4-(2-Cyclopropylmethoxy-5-fluoro-4-methoxy-phenyl)-5H-pyrrolo[3,2-d]pyrimidine-7-carboxylic acid [(R)-1-((S)-2-hydroxy-propanoyl)piperidin-3-yl]-amide] | 0.501
COc1cc(OCC2CC2)c(-c2ncnc3c(C(=O)N[C@@H]4CCN(C(=O)CO)C4)c[nH]c23)cc1F [Example 241, 4-(2-Cyclopropylmethoxy-5-fluoro-4-methoxy-phenyl)-5H-pyrrolo[3,2-d]pyrimidine-7-carboxylic acid [(R)-1-(2-hydroxy-acetyl)pyrrolidin-3-yl]-amide] | 1.35
COc1cc(OCC2CC2)c(-c2ncnc3c(C(=O)N[C@@H]4CCN(C(=O)[C@H](C)O)C4)c[nH]c23)cc1F [Example 242, 4-(2-Cyclopropylmethoxy-5-fluoro-4-methoxy-phenyl)-5H-pyrrolo[3,2-d]pyrimidine-7-carboxylic acid [(R)-1-((S)-2-hydroxy-propionyl)pyrrolidin-3-yl]-amide] | 0.977
Cc1ccc(OCC2CC2)c(-c2ncnc3c(C(=O)N[C@H]4CC[C@H](NC(=O)CO)CC4)c[nH]c23)c1 [Example 243, trans-4-(2-Cyclopropylmethoxy-5-methyl-phenyl)-5H-pyrrolo[3,2-d]pyrimidine-7-carboxylic acid [4-(2-hydroxy-acetylamino)-cyclohexyl]-amide] | 2.29
Cc1ccc(OCC2CC2)c(-c2ncnc3c(C(=O)N[C@H]4CC[C@H](NC(=O)[C@H](C)O)CC4)c[nH]c23)c1 [Example 244, trans-4-(2-Cyclopropylmethoxy-5-methyl-phenyl)-5H-pyrrolo[3,2-d]pyrimidine-7-carboxylic acid [4-((S)-2-hydroxy-propionylamino)-cyclohexyl]-amide] | 1.95
Cc1ccc(OCC2CC2)c(-c2ncnc3c(C(=O)N[C@H]4CC[C@H](NC(=O)C5(O)CC5)CC4)c[nH]c23)c1 [Example 245, trans-4-(2-Cyclopropylmethoxy-5-methyl-phenyl)-5H-pyrrolo[3,2-d]pyrimidine-7-carboxylic acid {4-[(1-hydroxy-cyclopropanecarbonyl)-amino]-cyclohexyl}-amide] | 1.15
Cc1ccc(OCC2CC2)c(-c2ncnc3c(C(=O)NC4CCN(C(=O)CO)CC4)c[nH]c23)c1 [Example 246, 4-(2-Cyclopropylmethoxy-5-methyl-phenyl)-5H-pyrrolo[3,2-d]pyrimidine-7-carboxylic acid [1-(2-hydroxy-acetyl)piperidin-4-yl]-amide] | 3.63
Cc1ccc(OCC2CC2)c(-c2ncnc3c(C(=O)NC4CCN(C(=O)[C@H](C)O)CC4)c[nH]c23)c1 [Example 247, 4-(2-Cyclopropylmethoxy-5-methyl-phenyl)-5H-pyrrolo[3,2-d]pyrimidine-7-carboxylic acid [1-((S)-2-hydroxy-propionyl)piperidin-4-yl]-amide] | 2.34
Cc1ccc(OCC2CC2)c(-c2ncnc3c(C(=O)NC4CCN(C(=O)C5(O)CC5)CC4)c[nH]c23)c1 [Example 248, 4-(2-Cyclopropylmethoxy-5-methyl-phenyl)-5H-pyrrolo[3,2-d]pyrimidine-7-carboxylic acid [1-(1-hydroxy-cyclopropanecarbonyl)-piperidin-4-yl]-amide] | 1.1
CCOc1ccc2c(c1-c1ncnc3c(C(=O)NC4CCN(C(=O)[C@H](C)O)CC4)c[nH]c13)OCO2 [Example 249, 4-(5-Ethoxy-benzo[1,3]dioxol-4-yl)-5H-pyrrolo[3,2-d]pyrimidine-7-carboxylic acid [1-((S)-2-hydroxy-propionyl)-piperidin-4-yl]-amide] | 2.14
CCOc1ccc2c(c1-c1ncnc3c(C(=O)N[C@@H]4CCN(C(=O)[C@H](C)O)C4)c[nH]c13)OCO2 [Example 250, 4-(5-Ethoxy-benzo[1,3]dioxol-4-yl)-5H-pyrrolo[3,2-d]pyrimidine-7-carboxylic acid [(R)-1-((S)-2-hydroxy-propionyl)-pyrrolidin-3-yl]amide] | 4.79
CCCOc1ccc2c(c1-c1ncnc3c(C(=O)NC4CCN(C(=O)[C@H](C)O)CC4)c[nH]c13)OCO2 [Example 251, 4-(5-Propoxy-benzo[1,3]dioxol-4-yl)-5H-pyrrolo[3,2-d]pyrimidine-7-carboxylic acid [1-((S)-2-hydroxy-propionyl)piperidin-4-yl]-amide] | 0.363
CCCOc1ccc2c(c1-c1ncnc3c(C(=O)N[C@@H]4CCN(C(=O)[C@H](C)O)C4)c[nH]c13)OCO2 [Example 252, 4-(5-Propoxy-benzo[1,3]dioxol-4-yl)-5H-pyrrolo[3,2-d]pyrimidine-7-carboxylic acid [(R)-1-((S)-2-hydroxy-propionyl)-pyrrolidin-3-yl]amide] | 1.2
CCCCOc1ccc2c(c1-c1ncnc3c(C(=O)NC4CCN(C(=O)[C@H](C)O)CC4)c[nH]c13)OCO2 [Example 253, 4-(5-Butoxy-benzo[1,3]dioxol-4-yl)-5H-pyrrolo[3,2-d]pyrimidine-7-carboxylic acid [1-((S)-2-hydroxy-propionyl)-piperidin-4-yl]-amide] | 0.17
CCCCOc1ccc2c(c1-c1ncnc3c(C(=O)N[C@@H]4CCN(C(=O)[C@H](C)O)C4)c[nH]c13)OCO2 [Example 254, 4-(5-Butoxy-benzo[1,3]dioxol-4-yl)-5H-pyrrolo[3,2-d]pyrimidine-7-carboxylic acid [(R)-1-((S)-2-hydroxy-propionyl)-pyrrolidin-3-yl]amide] | 0.589
COCCOc1cc(OC)ccc1-c1ncnc2c(C(=O)N[C@H]3CC[C@H](NC(=O)CO)CC3)c[nH]c12 [Example 255, trans-4-[4-Methoxy-2-(2-methoxy-ethoxy)-phenyl]-5H-pyrrolo[3,2-d]pyrimidine-7-carboxylic acid [4-(2-hydroxy-acetylamino)-cyclohexyl]-amide] | 13.5
COCCOc1cc(OC)ccc1-c1ncnc2c(C(=O)N[C@H]3CC[C@H](NC(=O)[C@H](C)O)CC3)c[nH]c12 [Example 256, trans-4-[4-Methoxy-2-(2-methoxy-ethoxy)-phenyl]-5H-pyrrolo[3,2-d]pyrimidine-7-carboxylic acid [4-((S)-2-hydroxy-propionylamino)-cyclohexyl]-amide] | 12
COCCOc1cc(OC)ccc1-c1ncnc2c(C(=O)N[C@H]3CC[C@H](NC(=O)C4(O)CC4)CC3)c[nH]c12 [Example 257, trans-4-[4-Methoxy-2-(2-methoxy-ethoxy)-phenyl]-5H-pyrrolo[3,2-d]pyrimidine-7-carboxylic acid {-[(1-hydroxy-cyclopropanecarbonyl)-amino]-cyclohexyl}-amide] | 9.33
COCCOc1cc(OC)ccc1-c1ncnc2c(C(=O)N[C@H]3CC[C@@H](NC(=O)C4(O)CC4)CC3)c[nH]c12 [Example 258, cis-4-[4-Methoxy-2-(2-methoxy-ethoxy)-phenyl]-5H-pyrrolo[3,2-d]pyrimidine-7-carboxylic acid {-[(1-hydroxy-cyclopropanecarbonyl)-amino]-cyclohexyl}-amide] | 6.31
COCCOc1cc(OC)ccc1-c1ncnc2c(C(=O)NC3CCN(C(=O)C4(O)CC4)CC3)c[nH]c12 [Example 259, 4-[4-Methoxy-2-(2-methoxy-ethoxy)-phenyl]-5H-pyrrolo[3,2-d]pyrimidine-7-carboxylic acid [1-(1-hydroxy-cyclopropanecarbonyl)-piperidin-4-yl]-amide] | 8.51
COCCOc1ccc2c(c1-c1ncnc3c(C(=O)N[C@H]4CC[C@H](NC(=O)CO)CC4)c[nH]c13)OCO2 [Example 260, trans-4-[5-(2-Methoxy-ethoxy)-benzo[1,3]dioxol-4-yl]-5H-pyrrolo[3,2-d]pyrimidine-7-carboxylic acid [4-(2-hydroxy-acetylamino)-cyclohexyl]-amide] | 4.79
COCCOc1ccc2c(c1-c1ncnc3c(C(=O)N[C@H]4CC[C@@H](NC(=O)CO)CC4)c[nH]c13)OCO2 [Example 261, cis-4-[5-(2-Methoxy-ethoxy)-benzo[1,3]dioxol-4-yl]-5H-pyrrolo[3,2-d]pyrimidine-7-carboxylic acid [4-(2-hydroxy-acetylamino)-cyclohexyl]-amide] | 11
COCCOc1ccc2c(c1-c1ncnc3c(C(=O)N[C@H]4CC[C@@H](NC(=O)[C@H](C)O)CC4)c[nH]c13)OCO2 [Example 262, cis-4-[5-(2-Methoxy-ethoxy)-benzo[1,3]dioxol-4-yl]-5H-pyrrolo[3,2-d]pyrimidine-7-carboxylic acid [4-((S)-2-hydroxy-propionylamino)-cyclohexyl]-amide] | 9.33
COCCOc1ccc2c(c1-c1ncnc3c(C(=O)NC4CCN(C(=O)[C@H](C)O)CC4)c[nH]c13)OCO2 [Example 263, 4-[5-(2-Methoxy-ethoxy)-benzo[1,3]dioxol-4-yl]-5H-pyrrolo[3,2-d]pyrimidine-7-carboxylic acid [1-((S)-2-hydroxy-propionyl)piperidin-4-yl]-amide] | 10
